{
  "source": "patent US20060188485A1",
  "about": "“Autologous self-tolerance inducing cells of monocytic origin and their use in pharmaceutical preparations” (priority 2003, published 2006)",
  "tested_on": "PHA-stimulated lymphocytes",
  "assay": "Mixed lymphocyte culture with PHA-stimulated lymphocytes, 3[H]-thymidine incorporation",
  "format": "cell-based, human",
  "details": "2 μmol 1-MT",
  "experimental": "In order to clarify, whether the inhibitor of the enzyme indolamine-2,3-dioxygenase (IDO) 1-methyltryptophane (1-MT) influences the suppressor function of the TAIC generated in the “Mo” and “Mo+Ly” set ups (see Example 4), a variety of mixed lymphocyte cultures (MLC) with PHA (phytohaemagglutinine) stimulated T-cells in the presence and in the absence of 1-MT were established.\nIn these mixed lymphocyte cultures 50.000 lymphocytes with 2 μg PHA were transferred into the wells of a 96-well-plate, followed by a proliferation period over 144 hours (indicated as “PhaLy”). Lymphocytes only cultivated in medium without addition of PHA were run as a further control (indicated as “Ly”). […]\nAfter 144 hours cultivation, all controls or co-cultures were further cultivated for 24 hours in the presence of ^3[H]-thymidine (“pulsed”) and thereafter the amount of radioactively labeled thymidine incorporated was determined as counts per minute (cpm), see FIG. 4. In this arrangement, the amount of the radio activity determined is a measure for the amount of labeled thymidine incorporated into the DNA, and therefore a measure for the proliferation rate of the lymphocytes. […]",
  "data": [
    {"smiles": "Cn1cc(C[C@H](N)C(=O)O)c2ccccc21", "note": "[1-MT, 1-methyltryptophane]", "values": [
      {"measurement": "influence of 1-MT on the suppressor function of the TAIC", "result": "increases the suppressor function of the TAIC synergistically"},
      {"measurement": "influence of 1-MT on the suppressor function of the TAIC", "setting": "listed as 1-methyltryptophane", "result": "no influence"}
    ]}
  ]
}
